Test [1] concerns the target T1, WDR5 (Homo sapiens, UniProt P61964). Kind of test: Thermal shift by differential scanning fluorimetry. It counts as binding. Conditions: DSF; 10 μM, or ten-point dilution for 7k. (In general: In DSF a fluorescence change marks the thermal transition of the protein.)
Test [2] concerns the target T1, WDR5. Conditions: for binding affinity for WDR5 (in words): FPA.
Test [3] concerns the target T1, WDR5. Kind of test: biochemical.
Test [4] addresses WDR5-c-MYC (Homo sapiens, UniProt P61964). The format is biochemical. As to conditions: HEK293 lysates; lowest concentration tested (6.25 μM).
Test [5] concerns the target WDR5-RBBP5 (Homo sapiens, UniProt P61964). The format is biochemical. Conditions: HEK293 lysates; lowest concentration tested (6.25 μM).

`N#CC1(c2cc(NS(=O)(=O)c3cc(Br)cc(Cl)c3O)c(O)c(C(=O)O)c2)CCCCC1` [Compound 6t, 3-((5-Bromo-3-chloro-2-hydroxyphenyl)sulfonamido)-5-(1-cyanocyclohexyl)-2-hydroxybenzoic acid]: in test [1], the “WDR5 stabilization by thermal shift (in words)” value was “largest ΔTm”.

Regarding `COc1ccccc1S(=O)(=O)Nc1cc(Cl)ccc1O` [Compound 5a, N-(5-Chloro-2-hydroxyphenyl)-2-methoxybenzenesulfonamide], the “binding affinity for WDR5 (in words)” value in test [2] is “all binding affinity for WDR5 is lost”.

Regarding `CNC(=O)c1cc(C2(C#N)CCC2)cc(NS(=O)(=O)c2cc(Br)ccc2OC)c1O` [Compound 9, 3-((5-Bromo-2-methoxyphenyl)sulfonamido)-5-(1-cyanocyclobutyl)-2-hydroxy-N-methylbenzamide], in test [2], the “binding affinity for WDR5 (in words)” value is reported as “sub-micromolar affinity”.

As to `O=S(=O)(Nc1cc(S(F)(F)(F)(F)F)ccc1O)c1cc(Br)ccc1O` [Compound 5k, 5-Bromo-2-hydroxy-N-(2-hydroxy-5-(pentafluorosulfanyl)phenyl)benzenesulfonamide], in test [2] (FPA Kd ratio vs trifluoromethyl cyclopropane 5l), the “improved binding affinity in comparison to 5l” value is ~ 5 fold.

Take `CNC(=O)c1cc(C2(C#N)CCC2)cc(NS(=O)(=O)c2cc(Br)cc(Cl)c2O)c1O` [Compound 7k, 3-((5-Bromo-3-chloro-2-hydroxyphenyl)sulfonamido)-5-(1-cyanocyclobutyl)-2-hydroxy-N-methylbenzamide]: the “WDR5 stabilization by thermal shift (in words)” value in test [1] was “concentration-dependent response”.

One may read the Kd as the constant that tells how readily two partners part at equilibrium. On to `COCCNC(=O)c1cc(C2(C#N)CCC2)cc(NS(=O)(=O)c2cc(Br)ccc2O)c1O` [Compound 7o, 3-((5-Bromo-2-hydroxyphenyl)sulfonamido)-5-(1-cyanocyclobutyl)-2-hydroxy-N-(2-methoxyethyl)benzamide], for which the Kd in test [3] was found to be 757 ± 17 nM.

Turning to `N#CC1(c2cc(NS(=O)(=O)c3cc(Br)ccc3O)c(O)c(C(=O)Nc3nc[nH]n3)c2)CCC1` [Compound 7n, 3-((5-Bromo-2-hydroxyphenyl)sulfonamido)-5-(1-cyanocyclobutyl)-2-hydroxy-N-(1H-1,2,4-triazol-3-yl)benzamide], binding in test [3] was put at a Kd of 46 ± 14 nM. This Kd is about 16-fold lower than that of the compound before.

Turning to `O=C(O)c1cc(S(F)(F)(F)(F)F)cc(NS(=O)(=O)c2cc(Br)cc(Cl)c2O)c1O` [Compound 6o, 3-((5-Bromo-3-chloro-2-hydroxyphenyl)sulfonamido)-2-hydroxy-5-(pentafluorosulfanyl)benzoic acid], the “WDR5 stabilization by thermal shift (in words)” value in test [1] was “largest ΔTm”.

`COc1ccc(Br)cc1S(=O)(=O)Nc1cc(Cl)cc(S(C)(=O)=O)c1O` [Compound 8, 5-Bromo-N-(5-chloro-2-hydroxy-3-(methylsulfonyl)phenyl)-2-methoxybenzenesulfonamide]: the “binding affinity for WDR5 (in words)” value in test [2] is recorded as “sub-micromolar affinity”.

For `N#CC1(c2cc(NS(=O)(=O)c3cc(Br)cc(Cl)c3O)c(O)c(C(=O)O)c2)CCC1` [Compound 6r, 3-((5-Bromo-3-chloro-2-hydroxyphenyl)sulfonamido)-5-(1-cyanocyclobutyl)-2-hydroxybenzoic acid], in test [1], the “WDR5 stabilization by thermal shift (in words)” value was “largest ΔTm”. Further, the “disruption of the association WDR5-c-MYC at the lowest concentration tested” value in test [4] is “marked disruption”. Besides, in test [5], the “disruption of the association WDR5-RBBP5 at the lowest concentration tested” value was “marked disruption”.

The record behind these values is publication PMC6933084 (Journal of medicinal chemistry, 2019).
